This test deals with T1, wild-type (WT) Octβ2R (Drosophila melanogaster, UniProt Q4LBB9).
T1 sequence (Q4LBB9 1-536): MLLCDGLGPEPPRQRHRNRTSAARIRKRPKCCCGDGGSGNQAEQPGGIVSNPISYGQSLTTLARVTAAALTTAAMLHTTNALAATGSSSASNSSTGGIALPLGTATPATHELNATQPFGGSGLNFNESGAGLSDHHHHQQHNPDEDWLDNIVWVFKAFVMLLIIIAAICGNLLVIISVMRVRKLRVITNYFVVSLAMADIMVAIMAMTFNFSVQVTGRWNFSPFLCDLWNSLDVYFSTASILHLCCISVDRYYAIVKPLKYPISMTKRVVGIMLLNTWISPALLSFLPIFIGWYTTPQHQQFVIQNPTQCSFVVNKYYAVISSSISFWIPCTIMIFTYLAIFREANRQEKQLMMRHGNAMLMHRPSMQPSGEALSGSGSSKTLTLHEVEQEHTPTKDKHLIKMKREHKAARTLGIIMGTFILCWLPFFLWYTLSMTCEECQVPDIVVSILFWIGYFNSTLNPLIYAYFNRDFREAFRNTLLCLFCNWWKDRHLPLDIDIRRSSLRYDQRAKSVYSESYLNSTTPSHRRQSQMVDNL
Nature of the test: Tango β-arrestin assay. The test is classed as cell-based. The note with it: agonist; OA 1 nM to 100 μM, ~16 h (Tango).

Each structure is given as a SMILES string.

In the case of `NC[C@H](O)c1ccc(O)cc1` [Octopamine], the “Tango β-arrestin assay (HTLA cells); RFlamp cAMP assay (HEK293T)” value is listed as “negligible β-arrestin-dependent signaling compared to cells expressing WT Octβ2R, even at high concentrations of OA”.

For the origin of these results see article PMC10979849 (bioRxiv, 2024).
